Measured values taken from patent US6376617B1, “Bioactive derivatives of camptothecin” (Pharmacia & Upjohn S.p.A., priority 1997, dated 2002).

Test system: human colon carcinoma (HT29)
Assay: Antitumor activity on human colon carcinoma (HT29) transplanted in nude mice
Settings: HT29 sc in nude mice; for TI% 46th day (tumor inhibition %): day 46
Experimental: Tumor fragment were implanted sc. Treatment started when tumor was palpable. TI % (tumor inhibition %) was calculated at day 46.

[1] = iv q4dx6, dose 20 mg/kg, total dose 120 mg/kg

## copolymer of N-(2-hydroxypropyl)methacrylamide, {7-ethyl-10-hydroxy-20-O-[N-methacryloyl-glycyl-L-phenylalanyl-L-leucyl-glycyl]camptothecin} and N-(2-hydroxypropyl)methacryloylglycinamide [A1]
Iv q4dx8, dose 5 mg/kg, total dose 40 mg/kg
  TI% 46th day (tumor inhibition %): 77%
Iv q4dx8, dose 10 mg/kg, total dose 80 mg/kg
  TI% 46th day (tumor inhibition %): 91%
Iv q4dx8, dose 20 mg/kg, total dose 160 mg/kg
  TI% 46th day (tumor inhibition %): 98%

## CCc1c2c(nc3ccc(O)cc13)-c1cc3c(c(=O)n1C2)COC(=O)[C@]3(O)CC [1a, 7-ethyl-10-hydroxycamptothecin, reference compound]
[1]
  Tox: 1/7
  TI% 46th day (tumor inhibition %): 97%
